Legend:
[1] = biological target: Coagulation factor X (Homo sapiens, UniProt P00742); experiment: Compound (isomer) was tested in the absence of light for inhibitory activity against Human Coagulation factor X
[2] = biological target: T1, Serine protease 1 (Bos taurus, UniProt P00760); experiment: Compound (isomer) was tested in the absence of light for inhibitory activity against trypsin.
T1 sequence (P00760 whole entry): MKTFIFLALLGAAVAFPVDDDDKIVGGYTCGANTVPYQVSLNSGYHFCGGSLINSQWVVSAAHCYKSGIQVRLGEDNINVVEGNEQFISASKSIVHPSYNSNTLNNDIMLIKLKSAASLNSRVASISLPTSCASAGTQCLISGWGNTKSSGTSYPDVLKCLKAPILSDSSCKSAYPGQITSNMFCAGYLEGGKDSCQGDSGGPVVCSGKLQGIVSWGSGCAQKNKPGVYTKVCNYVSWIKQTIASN

[3] = biological target: Prothrombin (Homo sapiens, UniProt P00734); experiment: Compound (isomer) was tested in the absence of light for inhibitory activity against thrombin.

Coagulation factor X, sequence (P00742 41-179 limits assumed): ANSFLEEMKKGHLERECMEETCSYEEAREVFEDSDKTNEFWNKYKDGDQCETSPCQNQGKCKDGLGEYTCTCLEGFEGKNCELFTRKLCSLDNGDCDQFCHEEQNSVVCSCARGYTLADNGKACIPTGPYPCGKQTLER
Coagulation factor X, sequence (P00742 235-488 limits assumed): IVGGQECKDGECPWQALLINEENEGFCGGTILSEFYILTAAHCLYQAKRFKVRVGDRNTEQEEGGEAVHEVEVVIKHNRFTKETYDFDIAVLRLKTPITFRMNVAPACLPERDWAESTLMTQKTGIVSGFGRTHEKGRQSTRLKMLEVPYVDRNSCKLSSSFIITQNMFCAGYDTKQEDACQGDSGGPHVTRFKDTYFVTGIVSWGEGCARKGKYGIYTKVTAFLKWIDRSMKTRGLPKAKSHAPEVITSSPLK

**Q.** Which results are given for `N=C(N)c1ccc(/C=C2\CCCC/C(=C\c3ccc(C(=N)N)cc3)C2=O)cc1`?
**A.** Ki [1]: 17000 nM; Ki [2]: 280 nM

**Q.** Which results are given for `N=C(N)c1ccc(/C=C2/CCCC/C(=C\c3ccc(C(=N)N)cc3)C2=O)cc1`?
**A.** Ki [3]: 130 nM; Ki [2]: 29 nM
